Test results from patent US20240019437A1, “METHODS FOR THE DIAGNOSIS AND THE TREATMENT OF GRAFT-VERSUS-HOST DISEASE” (INSERM (INSTITUT NATIONAL DE LA SANTÉ ET DE LA RECHERCHE …, priority 2020, published 2024).

Target: T1, CD73 (Homo sapiens, UniProt P21589)
T1 construct: Eight different CD73-expressing DP8α TREG clones were all separately co-cultured; endogenous in cells; host or cells: CD73-expressing DP8α Treg clones (human T cell clones)
T1 sequence (P21589 27-549): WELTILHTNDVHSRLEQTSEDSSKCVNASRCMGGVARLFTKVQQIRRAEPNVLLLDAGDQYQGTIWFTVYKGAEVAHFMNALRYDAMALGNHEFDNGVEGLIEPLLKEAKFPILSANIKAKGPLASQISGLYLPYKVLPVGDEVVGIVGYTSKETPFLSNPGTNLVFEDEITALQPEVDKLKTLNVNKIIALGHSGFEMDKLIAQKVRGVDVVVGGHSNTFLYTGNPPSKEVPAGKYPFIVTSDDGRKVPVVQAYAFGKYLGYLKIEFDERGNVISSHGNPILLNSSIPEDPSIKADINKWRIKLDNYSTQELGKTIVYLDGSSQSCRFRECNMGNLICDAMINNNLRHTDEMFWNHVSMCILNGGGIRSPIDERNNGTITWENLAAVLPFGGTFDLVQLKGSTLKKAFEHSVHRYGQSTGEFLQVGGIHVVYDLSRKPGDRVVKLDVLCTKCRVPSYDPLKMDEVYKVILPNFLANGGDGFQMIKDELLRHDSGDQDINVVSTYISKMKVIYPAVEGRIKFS
Experiment: Co-culture of CD73-expressing DP8α TREG clones with VPD-stained CD4+ T cells, with or without CD73 inhibitors; proliferation as percentage of VPD LOW CD4+ T cells
Format: cell-based
Conditions: 1:1 co-culture, proliferation measured 6 days later; three concentrations per inhibitor; compared to no treatment

Nc1ncnc2c1ncn2[C@@H]1O[C@H](COP(=O)([O-])CP(=O)(O)O)[C@@H](O)[C@H]1O.[Na+] [Adenosine 5′-(α,β-methylene)diphosphate sodium salt]
Effect on suppressive function of CD73-expressing DP8α TREG clones (inhibition of CD4+ T cell proliferation): drastically impaired the suppressive function
